Values quoted from earlier work as cited in patent US20240277615A1, “SELF-EMULSIFYING COMPOSITION, PRODUCTION METHODS AND USES THEREOF” (Universidade Da Beira Interior, priority 2021, published 2024).

What was measured:
[1] = system: plasma protein

For `CC(C)CCC[C@@H](C)[C@H]1CC[C@H]2[C@@H]3CC=C4C[C@@H](O)CC[C@]4(C)[C@H]3CC[C@]12C` [cholesterol], the “Log P” value is listed as 7.
In the case of `CCC(C)(C)C(=O)O[C@H]1C[C@@H](C)C=C2C=C[C@H](C)[C@H](CC[C@@H]3C[C@@H](O)CC(=O)O3)[C@H]21` [simvastatin], the plasma protein binding [1] is given as 94-98%.
